Earlier results as cited in patent publication US5767071A, “Sevenmer cyclic peptide inhibitors of diseases involving αv β3” (IXSYS Incorporated, priority 1995, dated 1998).

Tests used:
[1] = system: chicken embryo tumor model
integrin αv β3 = integrin αv β3 (Homo sapiens, UniProt P05106+P06756); settings: binding and cell adhesion assays
Sequence of integrin αv β3 (P06756 31-889 limits assumed): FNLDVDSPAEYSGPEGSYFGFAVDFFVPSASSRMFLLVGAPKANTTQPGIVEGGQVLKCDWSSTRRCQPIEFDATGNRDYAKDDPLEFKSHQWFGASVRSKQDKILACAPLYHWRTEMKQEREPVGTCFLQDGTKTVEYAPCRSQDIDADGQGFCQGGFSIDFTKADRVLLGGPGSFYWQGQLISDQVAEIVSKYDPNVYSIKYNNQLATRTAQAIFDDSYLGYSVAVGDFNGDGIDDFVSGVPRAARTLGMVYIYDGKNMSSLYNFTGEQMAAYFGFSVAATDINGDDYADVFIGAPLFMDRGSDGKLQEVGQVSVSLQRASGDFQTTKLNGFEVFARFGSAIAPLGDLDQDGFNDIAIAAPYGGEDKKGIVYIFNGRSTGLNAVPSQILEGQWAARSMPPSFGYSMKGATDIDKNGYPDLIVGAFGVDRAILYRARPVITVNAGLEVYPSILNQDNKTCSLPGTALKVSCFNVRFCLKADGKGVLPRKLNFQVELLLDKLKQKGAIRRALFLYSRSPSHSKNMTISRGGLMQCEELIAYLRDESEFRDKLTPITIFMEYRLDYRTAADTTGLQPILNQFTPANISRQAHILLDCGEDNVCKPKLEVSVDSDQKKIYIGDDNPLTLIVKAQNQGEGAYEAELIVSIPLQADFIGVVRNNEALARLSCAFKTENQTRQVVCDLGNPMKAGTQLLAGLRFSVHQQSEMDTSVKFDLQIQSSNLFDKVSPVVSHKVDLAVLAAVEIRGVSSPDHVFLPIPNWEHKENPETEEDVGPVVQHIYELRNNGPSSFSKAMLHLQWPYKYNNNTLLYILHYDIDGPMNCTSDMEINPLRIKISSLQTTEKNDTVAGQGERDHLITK
Sequence of integrin αv β3 (P06756 891-1048 limits assumed): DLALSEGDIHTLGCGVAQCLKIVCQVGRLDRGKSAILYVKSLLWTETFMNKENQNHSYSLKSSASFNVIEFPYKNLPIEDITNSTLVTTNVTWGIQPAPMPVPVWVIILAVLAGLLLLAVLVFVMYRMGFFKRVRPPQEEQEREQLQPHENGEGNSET
Sequence of integrin αv β3 (P05106 27-788): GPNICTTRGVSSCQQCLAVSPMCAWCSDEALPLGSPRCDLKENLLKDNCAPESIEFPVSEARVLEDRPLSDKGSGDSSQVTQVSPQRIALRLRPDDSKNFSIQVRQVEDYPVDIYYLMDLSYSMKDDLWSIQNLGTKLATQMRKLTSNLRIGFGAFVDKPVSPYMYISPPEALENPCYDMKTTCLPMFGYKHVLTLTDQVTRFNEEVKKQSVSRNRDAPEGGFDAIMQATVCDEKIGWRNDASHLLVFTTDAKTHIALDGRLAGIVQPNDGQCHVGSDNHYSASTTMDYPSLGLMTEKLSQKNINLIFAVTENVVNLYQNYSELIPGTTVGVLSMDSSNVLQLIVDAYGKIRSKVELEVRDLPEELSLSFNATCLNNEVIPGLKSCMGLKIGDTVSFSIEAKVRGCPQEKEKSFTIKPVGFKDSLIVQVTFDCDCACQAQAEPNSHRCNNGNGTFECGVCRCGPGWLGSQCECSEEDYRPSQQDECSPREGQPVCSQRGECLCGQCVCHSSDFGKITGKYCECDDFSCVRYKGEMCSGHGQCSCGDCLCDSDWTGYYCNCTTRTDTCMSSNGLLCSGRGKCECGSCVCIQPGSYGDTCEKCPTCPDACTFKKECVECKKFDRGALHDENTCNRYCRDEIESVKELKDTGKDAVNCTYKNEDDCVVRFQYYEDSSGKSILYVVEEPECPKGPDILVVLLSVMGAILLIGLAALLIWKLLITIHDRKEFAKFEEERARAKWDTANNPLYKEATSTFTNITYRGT

For CC(C)[C@@H]1NC(=O)[C@@H](Cc2ccccc2)NC(=O)[C@H](CC(=O)O)NC(=O)CNC(=O)[C@H](CCCN=C(N)N)NC1=O [cyclo-RGDfv], the “inhibition of angiogenesis / neovascularization” value [1] is listed as “inhibit the neovascularization process”.

In the case of “ACPSRLDSPCG [RLD peptide from a literature phage library (Koivunen et al.)]”, the “activity compared with an RGD peptide” value (integrin αv β3) is listed as 100-1000 fold lower and the “selectivity for the integrin αv β3” value (integrin αv β3) is listed as “only partially selective”.

In the case of Gly-Arg-Gly-Asp-Ser (GRGDS), the “inhibition of angiogenesis in vitro” value (angiogenesis) is listed as “inhibits angiogenesis in vitro”.
